Broadly, the IC50 is the concentration that inhibits the measured activity by half. Low readings indicate greater potency in that assay, high ones weaker potency in that assay.

Structures are written as SMILES. Where “and” joins values, the source holds several entries; their conditions need not be identical. Equal values may be shown once. Read-outs that look alike come from different tables or passages of the source.

Assay [1] concerns the target T1, cluster 2a type streptokinase (Streptococcus pyogenes, UniProt A0A288R465). Also noted: species or system group A streptococcal strain A614. The conditions noted are these: cell-based; for fold lower IC50 compared to TXA and EACA: streptokinase cluster type 2a. As to the method: The pellet from a mid-log phase culture of the strain A614 (cluster 2a type) or A314 (cluster 2b type) was washed twice with PBS and bacteria were adjusted to an OD600 of 1.0 in HEPES-buffer (10 mM HEPES, 150 mM NaCl, 0.01% Tween 20, pH 7.4). 90 µl of bacterial cells, plasminogen (final concentration 6.7 µg/ml per well) and fibrinogen (final concentration 1 µM per well) were pre-mixed. Then inhibitory compounds (LA, PA, oleic, myristic, stearic, palmitic, arachidonic, arachidic, linolenic acid, TXA or EACA) were added. Stocks of LA and PA were prepared in methanol and then diluted in PBS. Stocks of arachidic, oleic, arachidonic, myristic, palmitic, stearic and linolenic acid were prepared in 60% DMSO/PBS and then diluted in PBS. The untreated control received the same amount of PBS as in case of TXA and EACA as control or the same amount of methanol diluted in PBS as in case of LA and PA, respectively, or the same amount of DMSO diluted in PBS as in case of the other commercially available fatty acids. Then 50 µl of the respective supernatant (supernatant from the strain A614 if cells from A614 were used, supernatant from the strain A314 were used in case of cells from the GAS strain A314) and 3.75 µl 10 mM S-2251 (Chromogenix) were added. The assay was incubated at 37 °C and measured at the beginning of the reaction and then every hour at 405 nm after 3 sec of shaking on a Tecan Sunrise ELISAReader using Magellan software. Each experiment was repeated three times. IC50 values were calculated using Microsoft® Excel software.

Assay [2] concerns the target T1, cluster 2a type streptokinase. Put plainly: biochemical. The conditions noted are these: supernatant-based; for IC50 / fold lower concentration for the same range of inhibition as oleic and linolenic acid: cluster 2a; for fold lower IC50-values than TXA and EACA: cluster 2a type streptokinase. Format: biochemical, group A streptococcal strain A614.
For assay [3], the system named is recombinant cluster 2a type streptokinase. Put plainly: Plasminogen assay using recombinant streptokinase. Type of assay: biochemical, group A streptococcal strain A614. The conditions noted are these: 40 µg/ml. The method, then: An overnight culture of the strain A614 (in THY medium) was centrifuged at 5000 rpm for 10 min. The supernatant was discarded and the pellet was resuspended in TE-buffer (from DNeasy blood and tissue kit, Qiagen) containing 10% DNase-free RNase (10 µg/ml). The suspension was transferred to a vial filled with zirconium beads. Bacterial cells were lysed using a fastprep machine (MP Biomedical) twice for 30 sec at 4.0 m/sec. Then AL-buffer (from DNeasy blood and tissue kit, Qiagen) was added and beads were spun down for 30 sec. The lysate was transferred to a new reaction tube and proteinase K was added. The tube was inverted and incubated for 30 min at 56 °C. Then 100% ethanol was added and genomic DNA was isolated according to the protocol of the DNeasy blood and tissue kit (Qiagen). […] Using a gel electrophoresis, the 1500 bp product was detected, cut out and purified using a PCR clean-up, gel extraction kit (Machery-Nagel). […]
75 µl of the recombinant streptokinase (concentration 1 mg/ml) was added to the wells of a 96well plate followed by 69 µl PBS, 5 µl S-2251 (10 mM stock solution, chromogenic substrate for the detection of plasmin, Chromogenix) and 1 µl plasminogen (1 mg/ml stock solution, Biopur or Sigma). […] The absorption was measured at the beginning of the reaction and then every hour at 405 nm after 3 sec of shaking on a Tecan Sunrise ELISA Reader using Magellan software. […]

The next assay relates to S. pyogenes strain AP1. Put plainly: Clotting assay, escape of streptococci from clot (cluster 2a type streptokinase). Type of assay: cell-based. The conditions noted are these: 30 µg/ml, after 4 h, p < 0.05. The method, then:
To assess whether LA and PA influence the entrapment of bacteria within clots, a 50 ml overnight culture (THY medium) of the S. pyogenes strains AP1 or A666 was centrifuged at 4332 × g for 10 min. […] For clot induction, 100 µl citrate plasma, 100 µl of the respective bacterial suspension and 50 µl thrombin-reagent (Haemochrom Diagnostica) were used. […] Then clots were left untreated (treated with sodium citrate buffer only) or were treated with LA or PA (diluted in sodium citrate buffer). For clots formed with S. pyogenes strain A666, a final concentration of 60 µg/ml was used for both, LA and PA. For those formed with S. pyogenes strain AP1, a final concentration of 30 µg/ml was used. 50 µl of the supernatant of each sample were plated onto blood agar plates in serial dilutions at 0, 2 and 4 h after clot induction and incubated at 37 °C overnight. Colonies were counted the following day to assess the number of bacteria which had escaped the clot. […] Two independent experiments were performed. Standard deviations were calculated accordingly. Citrate plasma was obtained from healthy volunteers who gave their informed consent.

For the molecule `CCCCC/C=C\C/C=C\CCCCCCCC(=O)O` [LA, linoleic acid], in assay [1], the “fold lower IC50 compared to TXA and EACA” value is 250 fold. Besides, in assay [2], the concentration for half-maximal inhibition (IC50) is 156 µM and 149 µM; the “fold lower concentration for the same range of inhibition as oleic and linolenic acid” value is 3–4 fold; the “fold lower IC50-values than TXA and EACA” value is given as 500–1000 fold. Also, in assay [3], the “inhibition of plasminogen activation” value is 60–70%. In addition, in the assay with S. pyogenes strain AP1, the “GAS escaped from the clot compared to the untreated clot” value is “significantly lower amount of GAS escaped”.
`CCCCCC/C=C\CCCCCCCC(=O)O` [PA, palmitoleic acid]: in assay [1] (cluster 2a), the IC50 was 359 µM and 471 µM. In addition, the “fold lower IC50 compared to TXA and EACA” value in assay [1] amounted to 250 fold. In assay [2], the IC50 was 91.6 µM and 105 µM; the “fold lower concentration for the same range of inhibition as oleic and linolenic acid” value is recorded as 3–4 fold; the “fold lower IC50-values than TXA and EACA” value was 500–1000 fold. In addition, the “inhibition of plasminogen activation” value in assay [3] is on record as 60–70%. The “GAS escaped from the clot compared to the untreated clot” value with S. pyogenes strain AP1 is listed as “significantly lower amount of GAS escaped”.

Source of the values: publication PMC5603603, “Linoleic and palmitoleic acid block streptokinase-mediated plasminogen activation and reduce severity of invasive group A streptococcal infection” (Scientific Reports, 2017).
